These results are taken from US8722849B2, “Polypeptides” (Novo Nordisk A/S, priority 2011, dated 2014).

≈ marks a conversion by molar mass, not a printed value. Where two headings read alike, the source gives them in different places. Starred links: 1 amine or outer side, 2 acyl side, 3 side chain; linkers in the order of their positions; H or OH if unused. Positions of bridges follow the written chain, without caps; N, C: chain ends. Non-standard residues stand in square brackets, D forms with d. Residues, ends and D or L forms follow the SMILES beside them. *: point of attachment. C20 diacid = O=C(O)CCCCCCCCCCCCCCCCCCC(=O)*; γGlu = O=C(O)[C@H](CCC(=O)[*:2])N[*:1]; AEEA = NCCOCCOCC(=O)O Where only a bound is given, the exact number is not on record here.

Data set [1] addresses T1, human amylin receptor (amylin 3(a) receptor: human calcitonin receptor + RAMP-3) (Homo sapiens, UniProt O60896+P30988).
T1 construct: expressed in transfected cells; host or cells: BHK570
T1 sequence (P30988 25-474): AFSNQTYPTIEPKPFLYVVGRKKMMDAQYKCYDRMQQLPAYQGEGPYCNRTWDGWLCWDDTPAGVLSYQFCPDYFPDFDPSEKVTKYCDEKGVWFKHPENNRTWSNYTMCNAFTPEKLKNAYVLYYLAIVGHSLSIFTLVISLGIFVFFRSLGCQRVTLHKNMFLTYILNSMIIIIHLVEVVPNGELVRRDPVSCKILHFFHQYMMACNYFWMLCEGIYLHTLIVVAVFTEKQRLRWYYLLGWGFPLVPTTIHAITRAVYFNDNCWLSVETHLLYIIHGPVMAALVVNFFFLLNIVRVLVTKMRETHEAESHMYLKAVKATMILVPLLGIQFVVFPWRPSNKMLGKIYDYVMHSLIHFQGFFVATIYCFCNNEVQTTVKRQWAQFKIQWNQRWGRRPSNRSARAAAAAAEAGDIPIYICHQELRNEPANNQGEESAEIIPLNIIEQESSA
T1 sequence (O60896 24-148 partner): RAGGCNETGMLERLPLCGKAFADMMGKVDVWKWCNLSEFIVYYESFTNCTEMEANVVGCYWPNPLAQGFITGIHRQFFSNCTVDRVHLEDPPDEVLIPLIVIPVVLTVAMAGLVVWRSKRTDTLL
The experiment in a line: Assay (II)a functional CRE-luciferase assay, human amylin receptor. Type of data set: cell-based.

Data set [2] in a line: Assay (IV) determination of solubility. Type of data set: physicochemical. In outline: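 Solubility was profiled across pH 3.0–8.0 after 18 hours at room temperature: a ~500 nmol/ml aqueous polypeptide solution was diluted 1:1 into 100 mM glycylglycine or bistrispropane buffers. After centrifugation, HPLC gave the dissolved concentration.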
In data set [3] the target is T2, rat amylin 3(a) receptor (rat calcitonin(a) receptor + rat RAMP3) (Rattus norvegicus, UniProt P32214+Q9JJ73).
T2 construct: expressed in transfected cells; host or cells: BHK tk'ts 13
T2 sequence (P32214 25-479 isoform P32214-2 limits assumed): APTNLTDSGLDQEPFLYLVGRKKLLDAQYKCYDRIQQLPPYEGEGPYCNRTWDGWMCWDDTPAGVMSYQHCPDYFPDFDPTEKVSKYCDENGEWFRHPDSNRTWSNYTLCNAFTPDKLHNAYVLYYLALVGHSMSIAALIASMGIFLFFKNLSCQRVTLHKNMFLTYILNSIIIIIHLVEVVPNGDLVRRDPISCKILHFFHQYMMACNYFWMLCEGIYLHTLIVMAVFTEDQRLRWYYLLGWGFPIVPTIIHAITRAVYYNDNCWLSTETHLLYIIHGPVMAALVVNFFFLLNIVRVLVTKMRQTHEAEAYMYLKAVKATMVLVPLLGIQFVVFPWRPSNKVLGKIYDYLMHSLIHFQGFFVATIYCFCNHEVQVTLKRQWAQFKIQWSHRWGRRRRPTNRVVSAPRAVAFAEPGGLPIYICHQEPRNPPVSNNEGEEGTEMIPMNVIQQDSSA
T2 sequence (Q9JJ73 23-147 partner): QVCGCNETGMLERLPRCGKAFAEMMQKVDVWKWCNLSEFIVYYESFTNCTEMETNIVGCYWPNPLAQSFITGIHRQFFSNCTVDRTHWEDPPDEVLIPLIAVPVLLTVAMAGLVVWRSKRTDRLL
In words: Assay (II)b functional cAMP FlashPlate assay, rat amylin receptor. Type of data set: cell-based. Conditions: Table 11. The source says: (§1) Assay (II)b—Rat Calcitonin and Rat Amylin Receptor Assays
(§2) Activation of calcitonin and amylin (coexpression of calcitonin receptor and receptor activity modifying proteins (RAMP)) receptors lead to increased intracellular concentrations of cAMP. In order to quantify the cAMP levels in transiently transfected cells the Adenylyl Cyclase Activation FlashPlate® Assay from […] was used. The basic principle of the FlashPlate® Assay is a competition between radioactive and non-radioactive cAMP generated by the cells for a fixed number of binding sites.
(§3) Construction of rat calcitonin(a)—and rat amylin 3(a)-receptor cells.
(§4) BHK tk'ts 13 cells were transiently transfected with either rat calcitonin (a) receptor or amylin 3 (a) receptor (rat calcitonin(a) receptor+ rat RAMP3) using FuGENE® 6 (ROCHE), according to the manufacturers recommendations.
(§5) 24 hours after transient transfection the cells (rat calcitonin(a)—or rat amylin 3(a)—receptor cells) were added (100.000 cells/well) to the 96 well FlashPlates® with samples or standard in FlashPlate stimulation buffer with IBMX and incubated for 30 min. Detection mix was created according to manufacturers protocol and scintillation measured after 3 h of incubation on TopCounter™ (Packard).

The target in data set [4] is T3, rat calcitonin (a) receptor (Rattus norvegicus, UniProt P32214).
T3 construct: expressed in transfected cells; host or cells: BHK tk'ts 13
T3 sequence (P32214 25-479 isoform P32214-2 limits assumed): T2 sequence (P32214 25-479 isoform P32214-2 limits assumed)
In words: Assay (II)b functional cAMP FlashPlate assay, rat calcitonin receptor. Type of data set: cell-based. Conditions: Table 11; read-out: CTa receptor rat EC50.
Excerpt: as §1, §2, §3, §4, §5

The target of data set [5] is T4, human calcitonin receptor (Homo sapiens, UniProt P30988).
T4 construct: expressed in transfected cells; host or cells: BHK570
T4 sequence (P30988 25-474): T1 sequence (P30988 25-474)
The experiment in a line: Assay (II)a functional CRE-luciferase assay, human calcitonin receptor. Type of data set: cell-based.

Setting [6] is: Table 2, BHK amylin 3(a)-receptor/CRE-luc cells.
Setting [7] is: Table 7, human calcitonin (CTa) receptor.

One may read the EC50 as the concentration needed to bring the measured effect to its halfway point. A word on the solubility: it is how much of the substance goes into solution per volume. Regarding `CC[C@H](C)[C@H](NC(=O)[C@@H]1CCCN1C(=O)CNC(=O)[C@H](Cc1ccccc1)NC(=O)[C@H](CC(N)=O)NC(=O)[C@H](CC(N)=O)NC(=O)[C@H](CO)NC(=O)[C@H](CO)NC(=O)[C@H](CCCNC(=N)N)NC(=O)[C@H](Cc1cnc[nH]1)NC(=O)[C@H](CC(C)C)NC(=O)[C@H](Cc1ccccc1)NC(=O)[C@H](CCC(=O)O)NC(=O)[C@H](C)NC(=O)[C@H](CC(C)C)NC(=O)[C@H](CCCNC(=N)N)NC(=O)[C@H](CCC(N)=O)NC(=O)[C@@H](NC(=O)[C@H](C)NC(=O)[C@@H]1CSSC[C@H](NC(=O)[C@H](CCCCN)NC(=O)[C@@H](CCCNC(=N)N)NC(=O)[C@@H](CCCNC(=N)N)NC(=O)COCCOCCNC(=O)COCCOCCNC(=O)CC[C@H](NC(=O)CCCCCCCCCCCCCCCCCCC(=O)O)C(=O)O)C(=O)N[C@@H](CC(N)=O)C(=O)N[C@@H]([C@@H](C)O)C(=O)N[C@@H](C)C(=O)N[C@@H]([C@@H](C)O)C(=O)N1)[C@@H](C)O)C(=O)N[C@@H](CC(C)C)C(=O)N1CCC[C@H]1C(=O)N1CCC[C@H]1C(=O)N[C@H](C(=O)N[C@@H](CC(N)=O)C(=O)N[C@H](C(=O)NCC(=O)N[C@@H](CO)C(=O)N[C@@H](CC(N)=O)C(=O)N[C@H](C(=O)N[C@@H](Cc1ccc(O)cc1)C(N)=O)[C@@H](C)O)C(C)C)[C@@H](C)O` [Example 37, N-alpha-[2-(2-{2-[2-(2-{2-[(S)-4-Carboxy-4-(19-carboxyheptadecanoylamino)butyrylamino]ethoxy}ethoxy)acetylamino]ethoxy}ethoxy)acetyl]-D-Arg-D-Arg-[Glu14,His17,Arg18]-pramlintide] ({C20 diacid-γGlu-AEEA-AEEA}-[dR][dR]KCNTATCATQRLAEFLHRSSNNFGPILPPTNVGSNTY-NH2; disulfide 4-9), the EC50 was 0.0832 nM in data set [1] (setting [6]); 0.0832 nM in data set [1] (Table 3, BHK amylin 3(a)-receptor/CRE-luc cells); 0.0832 nM in data set [1] (Table 4); 0.0832 nM in data set [1] (Table 5); 0.0832 nM in data set [1] (Table 6, human amylin receptor); 0.0832 nM in data set [1] (Table 7, human amylin receptor). Also, the EC50 in data set [1] (Table 8) amounted to 0.0832 nM; in data set [1] (Table 11), 0.0832 nM; in data set [3], 0.132 nM; in data set [4], 1.89 nM; in data set [5] (setting [7]) it was 0.642 nM; in data set [5] (Table 11, read-out: CTa receptor human EC50), 0.642 nM. Further, the solubility in data set [2] (pH 3, pH 3.0, read-out: Solubility pH 3.0) was above 200 µM; in data set [2] (pH 4, pH 4.0, 18 hours at room temperature, Table 2, read-out: Solubility pH 4.0), above 200 µM; in data set [2] (pH 4, pH 4.0, read-out: Solubility pH 4.0) it was above 200 µM; in data set [2] (pH 5, pH 5.0, read-out: Solubility pH 5.0), above 200 µM; in data set [2] (pH 6, pH 6.0, read-out: Solubility pH 6.0), above 200 µM; in data set [2] (pH 7.5, pH 7.5, read-out: Solubility pH 7.5), above 200 µM. The solubility in data set [2] (pH 8, pH 8.0, read-out: Solubility pH 8.0) is above 200 µM. Also, the solubility at 18 h was determined as 124 µM (≈ 630 µg/mL) in data set [2] (pH 6.5, read-out: Solubility pH 6.5); 198 µM (≈ 1010 µg/mL) in data set [2] (pH 7.0, Table 8, read-out: Solubility pH 7.0); 198 µM (≈ 1010 µg/mL) in data set [2] (pH 7.0, read-out: Solubility pH 7.0). In addition, the “Solubility pH 7.0 (μM)” value in data set [2] (pH 7.0, 18 hours at room temperature, Table 3) is recorded as 198 μM.

As to `CC[C@H](C)[C@H](NC(=O)[C@@H]1CCCN1C(=O)CNC(=O)[C@H](Cc1ccccc1)NC(=O)[C@H](CO)NC(=O)[C@H](CO)NC(=O)[C@H](CO)NC(=O)[C@H](CO)NC(=O)[C@H](CCCNC(=N)N)NC(=O)[C@H](Cc1cnc[nH]1)NC(=O)[C@H](CC(C)C)NC(=O)[C@H](Cc1ccccc1)NC(=O)[C@H](CCC(=O)O)NC(=O)[C@H](C)NC(=O)[C@H](CC(C)C)NC(=O)[C@H](CCCNC(=N)N)NC(=O)[C@H](CCC(N)=O)NC(=O)[C@@H](NC(=O)[C@H](C)NC(=O)[C@@H]1CSSC[C@H](NC(=O)[C@H](Cc2cnc[nH]2)NC(=O)CC[C@H](NC(=O)CCCCCCCCCCCCCCCCCCC(=O)O)C(=O)O)C(=O)N[C@@H](CC(N)=O)C(=O)N[C@@H]([C@@H](C)O)C(=O)N[C@@H](C)C(=O)N[C@@H]([C@@H](C)O)C(=O)N1)[C@@H](C)O)C(=O)N[C@@H](CC(C)C)C(=O)N1CCC[C@H]1C(=O)N1CCC[C@H]1C(=O)N[C@H](C(=O)N[C@@H](CC(=O)O)C(=O)N[C@H](C(=O)NCC(=O)N[C@@H](CO)C(=O)N[C@@H](CC(=O)O)C(=O)N[C@H](C(=O)N[C@@H](Cc1ccc(O)cc1)C(N)=O)[C@@H](C)O)C(C)C)[C@@H](C)O` [Example 9, N-alpha-[(S)-4-Carboxy-4-(19-carboxynonadecanoylamino)butyryl]-[His1,Glu14,His17,Arg18,Ser21,Ser22,Asp31,Asp35]-pramlintide] ({C20 diacid-γGlu}-HCNTATCATQRLAEFLHRSSSSFGPILPPTDVGSDTY-NH2; disulfide 2-7), the EC50 in data set [1] (setting [6]) is 0.212 nM; in data set [3], 0.33 nM; in data set [4] it was 1.73 nM; in data set [5] (setting [7]) it was 0.208 nM. Moreover, the solubility at 18 h in data set [2] (bistrispropane buffer, pH 6, pH 6.0, read-out: Solubility pH 6.0) is above 200 µM; in data set [2] (bistrispropane buffer, pH 6.5, pH 6.5, read-out: Solubility pH 6.5), above 200 µM; in data set [2] (bistrispropane buffer, pH 7, pH 7.0, 18 hours at room temperature, Table 3, read-out: Solubility pH 7.0), above 200 µM; in data set [2] (bistrispropane buffer, pH 7, pH 7.0, Table 8, read-out: Solubility pH 7.0), above 200 µM; in data set [2] (bistrispropane buffer, pH 7, pH 7.0, Table 9, read-out: Solubility pH 7.0), above 200 µM; in data set [2] (bistrispropane buffer, pH 7, pH 7.0, read-out: Solubility pH 7.0), above 200 µM. Further, the solubility at 18 h in data set [2] (bistrispropane buffer, pH 7.5, pH 7.5, Table 9, read-out: Solubility pH 7.5) was above 200 µM; in data set [2] (bistrispropane buffer, pH 7.5, pH 7.5, read-out: Solubility pH 7.5), above 200 µM; in data set [2] (bistrispropane buffer, pH 8, pH 8.0, read-out: Solubility pH 8.0), above 200 µM; in data set [2] (glycylglycine buffer, pH 3, pH 3.0, read-out: Solubility pH 3.0) it was above 200 µM; in data set [2] (glycylglycine buffer, pH 4, pH 4.0, 18 hours at room temperature, Table 2, read-out: Solubility pH 4.0), 116 µM (≈ 514 µg/mL); in data set [2] (glycylglycine buffer, pH 4, pH 4.0, read-out: Solubility pH 4.0), 116 µM (≈ 514 µg/mL). For the same compound, in data set [2] (pH 5.0, read-out: Solubility pH 5.0), the solubility at 18 h is 5 µM (≈ 22.2 µg/mL).
